{"source": "patent US8323971B2", "about": "“Differentiation of pluripotent cells into primary germ layer progenitors” (Cambridge Enterprise Limited, priority 2006, dated 2012)", "tested_on": "hESCs", "assay": "Real time PCR of hESCs after addition of BMP4 in CDM (extra-embryonic differentiation)", "format": "cell-based, human", "conditions": "10 ng/ml in CDM", "description": "hESCs grown in Feeder free and serum free conditions were harvested using 5 mg/ml collagenase IV then plated into plates pre-coated with fibronectin. hESCs were grown for 48 hours in CDM supplemented with Activin (10 ng/ml, RandD systems) and FGF2 (12 ng/ml, RandD systems). To induce extra-embryonic differentiation, hESCs were grown for 5 additional days in CDM supplemented with BMP4 (10 ng/ml, RandD systems). To obtain neuroectoderm progenitors, hESCs were grown in CDM or in CDM-PVA in the presence of SB431542 (10 μM Tocris) and FGF2 (12 ng/ml, RandD systems) for 7 additional days. The resulting cells were grown in non-adherent conditions for 10 days and then plated back for 5 additional days in CDM to obtain fully differentiated neuronal cells. To obtain mesendoderm precursors, hESCs were grown for 3 additional days in CDM-PVA in the presence of SU5402 (10 μM, Calbiochem) and Activin (5 ng/ml, RandD systems). On the fifth day after passaging, the resulting cells were grown in CDM-PVA in the presence of BMP4 (10 ng/ml, RandD systems), FGF2 (20 ng/ml, RandD systems) and Activin (30 ng/ml or 100 ng/ml, RandD systems).\nTotal RNAs were extracted from hESCs or differentiated progenitors using the RNeasy Mini or Micro Kits (Qiagen). Each sample was treated with RNAse-Free DNAse (Qiagen) in order to avoid DNA contamination. […]", "data": [{"substance": "BMP4: Bone Morphogenetic Protein 4 growth factor", "values": [{"measurement": "expression of extra-embryonic markers including GATA6 and H19", "result": "strongly enhanced"}, {"measurement": "level of Oct-4 transcripts", "setting": "after 16 hours", "result": "significant decrease"}]}]}
